The values below come from US11040028B2, “Penicinotam derivative, preparation method and use thereof” (OCEAN UNIVERSITY OF CHINA, priority 2017, dated 2021).

Bounds are passed on as bounds.

Holding throughout (format): cell-based
The subject of one assay is BHK-21 cells. Nature of the assay: Anti-fibrosis activity test: inhibition of BHK-21 cell proliferation (CCK-8). As to conditions: Mesocricetus auratus, BHK-21, 48 h, CCK-8, 48 hours after administration. An outline of the steps:
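Cells plated 2×10^4 cells/mL; 24 h attach; compound dilutions, triplicate, 48 h, 37° C/5% CO2; CCK-8 2 h; A450; IR = (1−Ai/Ao)×100%; IC50 by curve fit.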

Assay [1] relates to human lung fibroblasts HFL1. The experiment in a line: Anti-fibrosis activity test: inhibition of proliferation of human lung fibroblasts HFL1 (CCK-8). Particulars: Homo sapiens, HFL1, 48 h, human lung fibroblasts HFL1, CCK-8, 48 hours. An outline of the steps: (§1)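 Read-out: absorbance at 450 nm after 2 h with CCK-8, following 48 h of compound exposure of adhered cells (2×10^4 cells/mL, 24 h attachment, 37° C, 5% CO2). Proliferation inhibition was taken relative to the blank control, and IC50 values were calculated from it.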

For assay [2], the system named is human hepatic stellate cells LX-2. The experiment in a line: Anti-fibrosis activity test: inhibition of proliferation of human hepatic stellate cells LX-2 (CCK-8). As to conditions: Homo sapiens, 48 h, human hepatic stellate cells LX-2, CCK-8, 48 hours. An outline of the steps:
as §1

For assay [3], the system named is human fibrosarcoma cells HT-1080. The experiment in a line: Anti-fibrosis activity test: inhibition of proliferation of human fibrosarcoma cells HT-1080 (CCK-8). As to conditions: Homo sapiens, HT-1080, 48 h, human fibrosarcoma cells HT-1080, CCK-8, 48 hours. An outline of the steps:
as §1

Assay [4] relates to human dermal fibroblasts CCC-ESF-1. Nature of the assay: Anti-fibrosis activity test: inhibition of proliferation of human dermal fibroblasts CCC-ESF-1 (CCK-8). Particulars: Fibroblast; human dermal fibroblasts CCC-ESF-1, CCK-8, 48 hours. An outline of the steps:
as §1

Assay [5] has as its system human embryonic lung fibroblast IMR-90. The experiment in a line: Anti-fibrosis activity test: inhibition of proliferation of human embryonic lung fibroblast IMR-90 (CCK-8). Particulars: human embryonic lung fibroblast IMR-90, CCK-8, 48 hours. In a few lines: as §1
Assay [6] concerns cardiac fibroblast RAT-iCell-C002. The experiment in a line: Anti-fibrosis activity test: inhibition of proliferation of cardiac fibroblast RAT-iCell-C002 (CCK-8). Particulars: Cardiac fibroblast, 48 h, cardiac fibroblast RAT-iCell-C002, CCK-8, 48 hours. In a few lines: as §1
A further assay concerns NF-κB. The experiment in a line: Immunological activity test: inhibition of NF-κB activity. Particulars: initial concentration of 30 μM; a/b isomers given as first/second symbol; read-out: IC50 (μM), inhibitory activity against NF-κB. The text has this:
Main references for immunological activity test of the compounds of the present application includes: Vogl, S.; Atanasov, A. G.; Binder, M.; Bulusu, M.; Zehl, M.; Fakhrudin, N.; Heiss, E. H.; Picker, P.; Wawrosch, C.; Saukel, J.; Reznicek, G.; Urban, E.; Bochkov, V.; Dirsch, V. M.; Kopp, B. J. Evid-Based Complementary Alern. Med. 2013, ID 395316. Commercially available parthenolide was utilized as a positive control.
The ability of the compounds of the present application to inhibit NF-κB activity was tested at an initial concentration of 30 μM.
The assay data for the compounds of the present application were further analyzed to determine their IC50 values.

For the compound `O=C1c2c(n(Cc3ccc(Cl)cc3)c3cc(C(F)(F)F)ccc3c2=O)-c2cccn21` [Compound 544a, 4-(4-Chlorobenzyl)-6-(trifluoromethyl)-9H-pyrrolizino[1,2-b]quinoline-9,10(4H)-dione], the IC50 with BHK-21 cells is less than 0.05 mM; in assay [1], 0.05 to 5 mM; in assay [2], 0.05 to 5 mM; in assay [3] it was 0.05 to 5 mM; in assay [4] it was 0.05 to 5 mM; in assay [5], 0.05 to 5 mM. Besides, the half-maximal inhibitory concentration (IC50) in assay [6] fell in the range of 0.05 to 5 mM; in the assay with NF-κB, 10 to 50 µM.
For the compound `O=C1c2c(nc3cc(C(F)(F)F)ccc3c2OCc2ccc(Cl)cc2)-c2cccn21` [Compound 544b, 9-((4-chlorobenzyl)oxy)-6-(trifluoromethyl)-10H-pyrrolizino[1,2-b]quinolin-10-one], the IC50 (in the assay with BHK-21 cells; in assay [1]; in assay [2]; in assay [3]; in assay [4]; in assay [5]) was 0.05 to 5 mM throughout. The half-inhibitory concentration (IC50) fell in the range of 0.05 to 5 mM in assay [6] and 1 to 10 µM with NF-κB.
As for `O=C1c2c(n(Cc3cccc(Cl)c3)c3cc(C(F)(F)F)ccc3c2=O)-c2cccn21` [Compound 545a, 4-(3-Chlorobenzyl)-6-(trifluoromethyl)-9H-pyrrolizino[1,2-b]quinoline-9,10(4H)-dione], the IC50 with BHK-21 cells lay in the range of 0.05 to 5 mM; in assay [1] it was 0.05 to 5 mM; in assay [2] it was 0.05 to 5 mM; in assay [3] it was 5 to 20 mM; in assay [4] it was 0.05 to 5 mM; in assay [5], 0.05 to 5 mM. Moreover, the half-inhibitory concentration (IC50) in assay [6] was in the range of 0.05 to 5 mM; with NF-κB, 1 to 10 µM.
Turning to `O=C1c2c(nc3cc(C(F)(F)F)ccc3c2OCc2cccc(Cl)c2)-c2cccn21` [Compound 545b, 9-((3-chlorobenzyl)oxy)-6-(trifluoromethyl)-10H-pyrrolizino[1,2-b]quinolin-10-one], the IC50 (with BHK-21 cells; in assay [1]; in assay [2]; in assay [3]; in assay [4]; in assay [5]) was 0.05 to 5 mM in each case. The results for the half-inhibitory concentration (IC50) (in assay [6]; with NF-κB) were 0.05 to 5 mM and 1 to 10 µM, respectively.
As to `O=C1c2c(n(Cc3ccccc3Cl)c3cc(C(F)(F)F)ccc3c2=O)-c2cccn21` [Compound 546a, 4-(2-Chlorobenzyl)-6-(trifluoromethyl)-9H-pyrrolizino[1,2-b]quinoline-9,10(4H)-dione], the IC50 in the assay on BHK-21 cells was less than 0.05 mM; in assay [1] it was 0.05 to 5 mM; in assay [2] it was 0.05 to 5 mM; in assay [3], 0.05 to 5 mM; in assay [4] it was 0.05 to 5 mM; in assay [5], 0.05 to 5 mM. Moreover, the figures for the IC50 (in assay [6]; with NF-κB) were 0.05 to 5 mM and 1 to 10 µM, respectively.
Consider `O=C1c2c(nc3cc(C(F)(F)F)ccc3c2OCc2ccccc2Cl)-c2cccn21` [Compound 546b, 9-((2-chlorobenzyl)oxy)-6-(trifluoromethyl)-10H-pyrrolizino[1,2-b]quinolin-10-one], for which the half-inhibitory concentration (IC50) (with BHK-21 cells; in assay [1]; in assay [2]; in assay [3]; in assay [4]; in assay [5]) was 0.05 to 5 mM each time. The IC50 was 0.05 to 5 mM in assay [6] and 0.1 to 1 µM with NF-κB.
For the compound `O=C1c2c(n(Cc3ccc(F)cc3)c3ccc(F)cc3c2=O)-c2cccn21` [Compound 617a, 7-Fluoro-4-(4-fluorobenzyl)-9H-pyrrolizino[1,2-b]quinoline-9,10(4H)-dione], the IC50 with BHK-21 cells was less than 0.05 mM; in assay [1], 0.05 to 5 mM; in assay [2], 0.05 to 5 mM; in assay [3], 0.05 to 5 mM; in assay [4], 0.05 to 5 mM; in assay [5], 0.05 to 5 mM. Moreover, the IC50 in assay [6] lay within 0.05 to 5 mM; in the assay with NF-κB, 0.1 to 1 µM.
As to `O=C1c2c(nc3ccc(F)cc3c2OCc2ccc(F)cc2)-c2cccn21` [Compound 617b, 7-fluoro-9-((4-fluorobenzyl)oxy)-10H-pyrrolizino[1,2-b]quinolin-10-one], the IC50 (in the assay on BHK-21 cells; in assay [1]; in assay [2]; in assay [3]; in assay [4]; in assay [5]) was 0.05 to 5 mM each time. Also, the half-maximal inhibitory concentration (IC50) in assay [6] lay in the range of 0.05 to 5 mM; in the assay with NF-κB it was 1 to 10 µM.
On to `O=C1c2c(n(Cc3ccc(Cl)cc3)c3ccc(F)cc3c2=O)-c2cccn21` [Compound 618a, 4-(4-Chlorobenzyl)-7-fluoro-9H-pyrrolizino[1,2-b]quinoline-9,10(4H)-dione], for which the half-maximal inhibitory concentration (IC50) (with BHK-21 cells; in assay [1]; in assay [2]; in assay [3]; in assay [4]; in assay [5]) was 0.05 to 5 mM each time. Also, the half-maximal inhibitory concentration (IC50) fell in the range of 0.05 to 5 mM in assay [6] and 1 to 10 µM with NF-κB.
For the compound `O=C1c2c(nc3ccc(F)cc3c2OCc2ccc(Cl)cc2)-c2cccn21` [Compound 618b, 9-((4-chlorobenzyl)oxy)-7-fluoro-10H-pyrrolizino[1,2-b]quinolin-10-one], the concentration for half-maximal inhibition (IC50) (in the assay with BHK-21 cells; in assay [1]; in assay [2]; in assay [3]; in assay [4]; in assay [5]) was 0.05 to 5 mM in each case. Further, the figures for the 50% inhibitory concentration (IC50) (in assay [6]; with NF-κB) were 0.05 to 5 mM and 1 to 10 µM, respectively.
`N#Cc1ccc(Cn2c3c(c(=O)c4cc(F)ccc42)C(=O)n2cccc2-3)cc1` [Compound 619a, 4-((7-Fluoro-9,10-dioxo-9H-pyrrolizino[1,2-b]quinolin-4(10H)-yl)methyl)benzonitrile]: the IC50 in the assay on BHK-21 cells is 0.05 to 5 mM; in assay [1], 0.05 to 5 mM; in assay [2] it was 0.05 to 5 mM; in assay [3], 0.05 to 5 mM; in assay [4] it was less than 0.05 mM; in assay [5], 0.05 to 5 mM. Moreover, the figures for the half-inhibitory concentration (IC50) (in assay [6]; with NF-κB) were 0.05 to 5 mM and 1 to 10 µM, respectively.
As for `N#Cc1ccc(COc2c3c(nc4ccc(F)cc24)-c2cccn2C3=O)cc1` [Compound 619b, 4-(((7-fluoro-10-oxo-10H-pyrrolizino[1,2-b]quinolin-9-yl)oxy)methyl)benzonitrile], the half-maximal inhibitory concentration (IC50) is 0.05 to 5 mM with BHK-21 cells; 0.05 to 5 mM in assay [1]; 0.05 to 5 mM in assay [2]; 0.05 to 5 mM in assay [3]; less than 0.05 mM in assay [4]; 0.05 to 5 mM in assay [5]. The concentration for half-maximal inhibition (IC50) in assay [6] is 0.05 to 5 mM; in the assay with NF-κB it was 1 to 10 µM.
In the case of `O=C1c2c(n(Cc3ccc(C(F)(F)F)cc3)c3ccc(F)cc3c2=O)-c2cccn21` [Compound 620a, 7-Fluoro-4-(4-(trifluoromethyl)benzyl)-9H-pyrrolizino[1,2-b]quinoline-9,10(4H)-dione], the IC50 is less than 0.05 mM in the assay on BHK-21 cells; 0.05 to 5 mM in assay [1]; 0.05 to 5 mM in assay [2]; 0.05 to 5 mM in assay [3]; 5 to 20 mM in assay [4]; 0.05 to 5 mM in assay [5]. For the same compound, the half-maximal inhibitory concentration (IC50) in assay [6] was in the range of 0.05 to 5 mM; in the assay with NF-κB, 1 to 10 µM.
For `O=C1c2c(nc3ccc(F)cc3c2OCc2ccc(C(F)(F)F)cc2)-c2cccn21` [Compound 620b, 7-Fluoro-9-((4-(trifluoromethyl)benzyl)oxy)-10H-pyrrolizino[1,2-b]quinolin-10-one], the IC50 is 0.05 to 5 mM in the assay with BHK-21 cells; 0.05 to 5 mM in assay [1]; 0.05 to 5 mM in assay [2]; 0.05 to 5 mM in assay [3]; 5 to 20 mM in assay [4]; 0.05 to 5 mM in assay [5]. For the same compound, the 50% inhibitory concentration (IC50) lay in the range of 0.05 to 5 mM in assay [6] and 1 to 10 µM in the assay with NF-κB.
For the compound `O=C1c2c(n(Cc3ccc(Cl)cc3F)c3ccc(F)cc3c2=O)-c2cccn21` [Compound 621a, 4-(4-Chloro-2-fluorobenzyl)-7-fluoro-9H-pyrrolizino[1,2-b]quinoline-9,10(4H)-dione], the concentration for half-maximal inhibition (IC50) (in the assay with BHK-21 cells; in assay [1]; in assay [2]; in assay [3]; in assay [4]; in assay [5]) was 0.05 to 5 mM in each case. Moreover, the figures for the IC50 (in assay [6]; with NF-κB) were 0.05 to 5 mM and 1 to 10 µM, respectively.
Consider `O=C1c2c(nc3ccc(F)cc3c2OCc2ccc(Cl)cc2F)-c2cccn21` [Compound 621b, 9-((4-chloro-2-fluorobenzyl)oxy)-7-fluoro-10H-pyrrolizino[1,2-b]quinolin-10-one], for which the IC50 (in the assay with BHK-21 cells; in assay [1]; in assay [2]; in assay [3]; in assay [4]; in assay [5]) was 0.05 to 5 mM each time. Moreover, the half-maximal inhibitory concentration (IC50) in assay [6] is 0.05 to 5 mM; in the assay with NF-κB, 1 to 10 µM.
